The supplement of paper PMC10307832

How the values were obtained:
Assay in all cases: relative viability (nuclei count vs DMSO), 5 days (fraction); higher = more cells survive
QS11 + Dasatinib = compound: C1CC2=C(C1)C=C(C=C2)OC3=NC(=C4C(=N3)N(C=N4)CC5=CC=C(C=C5)C6=CC=CC=C6)N[C@@H](CC7=CC=CC=C7)CO [QS11] + Cc1nc(Nc2ncc(C(=O)Nc3c(C)cccc3Cl)s2)cc(N2CCN(CCO)CC2)n1 [Dasatinib] (partner 0.075 µM)
Method in brief: (§1)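 Relative viability was taken as the ratio of nuclei in treated wells to nuclei in vehicle wells. Lung cancer cell lines in 1536-well plates received compounds by pin tool one day after seeding, either one drug alone or a fixed anchor-drug dose plus five library-drug doses (not always all listed) in √10 steps. Nuclei were counted on 4× images after 5 days of treatment, and values are medians of duplicate plates.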

AZ628 + Pictilisib = compound: CC1=C(C=C(C=C1)NC(=O)C2=CC(=CC=C2)C(C)(C)C#N)NC3=CC4=C(C=C3)N=CN(C4=O)C [AZ628] + CS(=O)(=O)N1CCN(Cc2cc3nc(-c4cccc5[nH]ncc45)nc(N4CCOCC4)c3s2)CC1 [Pictilisib] (partner 1 µM)
Method in brief: as §1

AZ628 + Dasatinib = compound: CC1=C(C=C(C=C1)NC(=O)C2=CC(=CC=C2)C(C)(C)C#N)NC3=CC4=C(C=C3)N=CN(C4=O)C [AZ628] + Cc1nc(Nc2ncc(C(=O)Nc3c(C)cccc3Cl)s2)cc(N2CCN(CCO)CC2)n1 [Dasatinib] (partner 0.075 µM)
Method in brief: as §1

AZ628 + AZD7762 = compound: CC1=C(C=C(C=C1)NC(=O)C2=CC(=CC=C2)C(C)(C)C#N)NC3=CC4=C(C=C3)N=CN(C4=O)C [AZ628] + NC(=O)Nc1cc(-c2cccc(F)c2)sc1C(=O)N[C@H]1CCCNC1 [AZD7762] (partner 0.2 µM)
Method in brief: as §1

Cell Line	relative viability (QS11 + Dasatinib; first compound 0.08 µM)	relative viability (QS11 + Dasatinib; first compound 0.253 µM)	relative viability (QS11 + Dasatinib; first compound 0.8 µM)	relative viability (QS11 + Dasatinib; first compound 2.53 µM)	relative viability (QS11 + Dasatinib; first compound 8 µM)	relative viability (AZ628 + Pictilisib; first compound 0.08 µM)	relative viability (AZ628 + Pictilisib; first compound 0.253 µM)	relative viability (AZ628 + Pictilisib; first compound 0.8 µM)	relative viability (AZ628 + Pictilisib; first compound 2.53 µM)	relative viability (AZ628 + Pictilisib; first compound 8 µM)	relative viability (AZ628 + Dasatinib; first compound 0.08 µM)	relative viability (AZ628 + Dasatinib; first compound 0.253 µM)	relative viability (AZ628 + Dasatinib; first compound 0.8 µM)	relative viability (AZ628 + Dasatinib; first compound 2.53 µM)	relative viability (AZ628 + Dasatinib; first compound 8 µM)	relative viability (AZ628 + AZD7762; first compound 0.08 µM)	relative viability (AZ628 + AZD7762; first compound 0.253 µM)	relative viability (AZ628 + AZD7762; first compound 0.8 µM)	relative viability (AZ628 + AZD7762; first compound 2.53 µM)	relative viability (AZ628 + AZD7762; first compound 8 µM)
HOP-62	0.695	0.667	0.708	0.615	0.706	0.607	0.6	0.511	0.441	0.211	0.501	0.608	0.477	0.478	0.317	0.831	0.555	0.613	0.479	0.297
LC-2-ad	0.535	0.537	0.614	0.693	0.79	0.472	0.344	0.122	0.261	0.162	0.713	0.419	0.396	0.365	0.149	0.909	0.85	1.02	0.922	0.759
EPLC-272H		0.394	0.35	0.257	0.333	0.273	0.232	0.236	0.266	0.231	0.317	0.345	0.398	0.357	0.231	0.34	0.168	0.165	0.22	0.236
NCI-H441	0.802	0.689	0.496	0.786	0.827	0.417	0.45	0.444	0.403	0.283	0.643	0.577	0.598	0.567	0.277	1.41	0.841	0.911	1.1	0.655
LU99A	0.463	0.587	0.685	0.684	0.681	0.274	0.306	0.362	0.331	0.205	0.527	0.625	0.52	0.492	0.242	0.436	0.363	0.415	0.33	0.22
PC-14	0.223	0.201	0.289	0.26	0.15	0.617	0.627	0.738	0.808	0.237	0.274	0.289	0.315	0.262	0.146	0.48	0.324	0.338	0.316	0.296
NCI-H2085	0.222	0.263	0.277	0.292	0.255	0.506	0.413	0.408	0.386	0.378	0.255	0.274	0.252	0.239	0.237	0.997	0.925	1.04	1.01	0.566
NCI-H1395	0.387	0.361	0.382	0.408	0.419	0.645	0.621	0.618	0.629	0.662	0.411	0.426	0.416	0.423	0.362	0.431	0.421	0.381	0.372	0.358
NCI-H1666	0.783	0.839	0.568	0.583	0.528	0.404	0.296	0.339	0.362	0.313	0.812	0.733	0.669	0.665	0.668	0.837	0.742	0.645	0.737	0.651
NCI-H647	0.164	0.219	0.216	0.184	0.205	0.385	0.163	0.313	0.247	0.27	0.193	0.173	0.217	0.14	0.15	0.485	0.417	0.456	0.488	0.397
A-427	0.646	0.718		0.708	0.729	0.43	0.364	0.333	0.177	0.132	0.594	0.472	0.301	0.314	0.153	0.591	0.569	0.6	0.524	0.352
NCI-H1915	0.348	0.321		0.35	0.239	0.822	0.67	0.693	0.493	0.313	0.327	0.293	0.249	0.199	0.139	0.741	0.782	0.644	0.558	0.271
NCI-H1355	0.702	0.526	0.673	0.817	0.794	0.454	0.395	0.404	0.34	0.285	0.723	0.663	0.611	0.626	0.458	0.798	0.754	0.737	0.638	0.541
HCC-15	0.649	0.611	0.532	0.73	0.49	0.729	0.533	0.52	0.553	0.33	0.642	0.496	0.389	0.404	0.23	1.16	1.07	1.08	1.01	0.894
HCC-78	0.432	0.395	0.491	0.558	0.67	0.373	0.21	0.211	0.228	0.231	0.514	0.338	0.417	0.394	0.367	0.808	0.663	0.644	0.85	0.787
NCI-H23	0.809	0.673	0.738	0.654	0.712	0.407	0.319	0.261	0.312	0.246	0.708	0.75	0.44	0.509	0.302	0.226	0.23	0.151	0.184	0.146
NCI-H838	0.271	0.312	0.357	0.27	0.276	0.523	0.559	0.356	0.403	0.365	0.287	0.291	0.297	0.274	0.284	0.957	0.884	0.915	0.95	0.922
NCI-H1793	0.381	0.374	0.472	0.419	0.48	0.345	0.202	0.32	0.275	0.196	0.422	0.315	0.354	0.344	0.388	0.52	0.244	0.419	0.319	0.177
ChaGo-K-1	0.41	0.556	0.518	0.655	0.618	0.889		0.474	0.756	0.743	0.585	0.501	0.287	0.547	0.564	0.935	0.821	0.805	0.853	0.663
LCLC-103H	0.403	0.511	0.447	0.601	0.576	0.554	0.587	0.632	0.55	0.583	0.559	0.427	0.523	0.399	0.478	0.759	0.771	0.824	0.79	0.783
ABC-1	0.577	0.436		0.605	0.571	0.764	0.828	0.677	0.643	0.486	0.592	0.412	0.583	0.516	0.52	0.761	0.786	0.768	0.865	0.745
HARA	0.294	0.281		0.221	0.307	0.331	0.379	0.283	0.337	0.287	0.322	0.227	0.175	0.247	0.198	0.299	0.216	0.272	0.363	0.228
NCI-H1755	0.449	0.39	0.38	0.391	0.314	0.378	0.346	0.29	0.275	0.203	0.459	0.39	0.417	0.381	0.326	0.466	0.385	0.392	0.429	0.356
NCI-H460	0.523	0.462	0.329	0.359	0.291	0.323	0.25	0.254	0.269	0.127	0.569	0.428	0.362	0.407	0.132	0.51	0.589	0.627	0.672	0.596
NCI-H2170	0.621	0.482	0.582	0.794	0.968	0.386	0.305	0.354	0.337	0.275	0.555	0.391	0.46	0.557	0.481	0.882	0.793	0.832	1.02	0.743
NCI-H3122	0.876	0.82		0.969	0.538	0.286	0.218	0.214	0.214	0.234	0.819	0.39	0.15	0.212	0.176	0.953	0.782	0.578	0.626	0.361
NCI-H2087	0.745	0.963		0.963	1.2	0.617	0.35	0.325	0.341	0.291	0.565	0.32	0.226	0.237	0.154	1.04	1.04	1.03	1.13	0.298
